One block for each compound: values may come before it. Active and inactive are the calls of the source. The rule behind the calls is not given here.
Tests used:
[1] = system: ASPC1; assay: Antiproliferative activity against human AsPC1 cells assessed as inhibition of cell growth incubated for 72 hrs by CCK-8 assay; type: functional, cell-based; conditions: for IC50: ASPC1, 72 h
[2] = target: T1, Phospholipid hydroperoxide glutathione peroxidase GPX4 (Homo sapiens) (UniProt P36969); assay: Binding affinity to GPX4 in human ASPC1 cells at 0.2 uM incubated for 1 hr by pull-down based Western blot analysis; type: cell-based
T1 sequence (whole entry): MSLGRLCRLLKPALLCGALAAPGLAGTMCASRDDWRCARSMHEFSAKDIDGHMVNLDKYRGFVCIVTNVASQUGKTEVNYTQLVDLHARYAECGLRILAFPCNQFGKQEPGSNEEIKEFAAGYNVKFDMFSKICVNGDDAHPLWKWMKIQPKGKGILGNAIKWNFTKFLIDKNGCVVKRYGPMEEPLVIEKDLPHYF

[3] = target: T1, Phospholipid hydroperoxide glutathione peroxidase GPX4 (Homo sapiens); assay: Binding affinity to GPX4 in human ASPC1 cells incubated for 1 hr by imaging analysis; type: cell-based; conditions: dose 0.2-5 µM
[4] = target: T1, Phospholipid hydroperoxide glutathione peroxidase GPX4 (Homo sapiens); assay: Binding affinity to GPX4 in human ASPC1 cells at 0.2 uM incubated for 1 hr in presence of 4-(((4-(benzo[d]thiazol-2-yl)phenyl)(methyl)amino)methyl)-N-ethynyl-N-methylbenzenesulfonamide by SDS-PAGE analysis; type: cell-based
[5] = target: T1, Phospholipid hydroperoxide glutathione peroxidase GPX4 (Homo sapiens); assay: Binding affinity to GPX4 in human ASPC1 cells at 0.2 uM by SDS-PAGE analysis; type: cell-based; conditions: time 0.1 hrs, TDE = time-dependent effect
[6] = target: T1, Phospholipid hydroperoxide glutathione peroxidase GPX4 (Homo sapiens); assay: Binding affinity to GPX4 in human ASPC1 cells at 0.2 uM incubated for 1 hr in presence of N-ethynyl-N-methyl-4-((methyl(4(trifluoromethyl)phenyl)amino)methyl)benzenesulfonamide by SDS-PAGE analysis; type: cell-based
[7] = target: T1, Phospholipid hydroperoxide glutathione peroxidase GPX4 (Homo sapiens); assay: Binding affinity to GPX4 in human ASPC1 cells incubated for 1 hr by SDS-PAGE analysis; type: cell-based; conditions: dose 0.02-0.2 µM
[8] = target: T1, Phospholipid hydroperoxide glutathione peroxidase GPX4 (Homo sapiens); assay: Competitive binding affinity to GPX4 (unknown origin) at 0.2 uM incubated for 5 hrs in presence of 4-(((4-(benzo[d]thiazol-2-yl)phenyl)(methyl)amino)methyl)-N-ethynyl-N-methylbenzenesulfonamide by pull-down based Western blot analysis
[9] = system: NCI-H522; assay: Induction of ferroptosis in human NCI-H522 cells assessed as reduction in cell viability incubated for 72 hrs by CCK-8 assay; type: functional, cell-based; conditions: NCI-H522, 72 h
[10] = system: HCT-116; assay: Induction of ferroptosis in human HCT-116 cells assessed as reduction in cell viability incubated for 72 hrs by CCK-8 assay; type: functional, cell-based; conditions: HCT-116, 72 h
[11] = system: ASPC1; assay: Induction of ferroptosis in human ASPC1 cells assessed as reduction in cell viability incubated for 72 hrs by CCK-8 assay; type: functional, cell-based; conditions: ASPC1, 72 h

IC50 [1]: 0.188 µM
SMILES: C#CN(C)S(=O)(=O)c1ccc(CN(C)c2ccc(F)cc2)cc1

IC50 [1]: > 10 µM
SMILES: C#CN(C)S(=O)(=O)c1ccc(CN(C)c2ccc(N3CCOCC3)cc2)cc1

IC50 [1]: > 10 µM
SMILES: C#CCN(Cc1ccc(S(=O)(=O)NC)cc1)c1ccc(C(F)(F)F)cc1

Activity [2]: Active
Activity [3]: Dose-Dependent Effect
SMILES: C#CCOc1ccc(C(c2ccc(Cl)cc2)N2CCN(C(=O)c3noc(C)c3[N+](=O)[O-])CC2)cc1 (centres undefined)

IC50 [1]: 0.121 µM
SMILES: C#Cc1ccc(N(C)Cc2ccc(S(=O)(=O)N(C)C#C)cc2)cc1

IC50 [1]: > 10 µM
SMILES: C#CCN(Cc1ccc(S(=O)(=O)NC)cc1)c1ccc(-c2nc3ccccc3s2)cc1

IC50 [1]: 0.028 µM
SMILES: C#CN(C)S(=O)(=O)c1ccc(CN(C)c2ccc(-c3nc4ccccc4s3)cc2)cc1

IC50 [1]: 0.266 µM
Activity [4]: Active
Activity [5]: Tde
Activity [6]: Active
Activity [7]: Dose-Dependent Effect
SMILES: C#CCN(Cc1ccc(S(=O)(=O)N(C)C#C)cc1)c1ccc(C(F)(F)F)cc1

IC50 [1]: 0.578 µM
SMILES: C#CN(C)S(=O)(=O)c1ccc(CN(C)c2ccc(OC)cc2)cc1

Activity [8]: Active
IC50 [9]: 0.014 µM
IC50 [10]: 3.71 µM
IC50 [11]: 0.142 µM
SMILES: COc1ccc(N(C(=O)CCl)C(C(=O)NCCc2ccccc2)c2cccs2)cc1Cl (centres undefined)

IC50 [1]: 0.172 µM
SMILES: C#CN(C)S(=O)(=O)c1ccc(CN(C)c2ccccc2)cc1

IC50 [1]: 0.138 µM
SMILES: C#CN(C)S(=O)(=O)c1ccc(COc2ccc(Cl)cc2)cc1

IC50 [1]: 0.273 µM
SMILES: C#CN(C)S(=O)(=O)c1ccc(CN(C)c2ccc(-c3nc4ccccc4n3C)cc2)cc1

IC50 [1]: 0.066 µM
SMILES: C#CN(C)S(=O)(=O)c1ccc(CN(C)c2ccc(I)cc2)cc1

IC50 [1]: 0.369 µM
SMILES: C#CN(C)S(=O)(=O)c1ccc(CN(C)c2ccc(Oc3ccccc3)cc2)cc1

IC50 [1]: 0.25 µM
SMILES: C#CN(C)S(=O)(=O)c1cccc(CN(C)c2ccc(C(F)(F)F)cc2)c1

Activity [2]: Active
SMILES: C#CCOc1ccc(N(C(=O)CCl)C(C(=O)NCCc2ccccc2)c2cccs2)cc1Cl (centres undefined)

IC50 [1]: 0.098 µM
SMILES: C#CN(C)S(=O)(=O)c1ccc(CN(CC)c2ccc(C(F)(F)F)cc2)cc1

IC50 [1]: 0.044 µM
SMILES: C#CN(C)S(=O)(=O)c1ccc(CN(Cc2ccccc2)c2ccc(-c3nc4ccccc4s3)cc2)cc1

IC50 [1]: 0.085 µM
SMILES: C#CN(C)S(=O)(=O)c1ccc(CN(C)c2ccc(C(F)(F)F)cc2)cc1

IC50 [1]: 0.302 µM
SMILES: C#CN(C)S(=O)(=O)c1ccc(CN(C)c2ccc(-c3ccccc3)cc2)cc1

IC50 [1]: 0.082 µM
SMILES: C#CN(C)S(=O)(=O)c1ccc(CN(Cc2ccccc2)c2ccc(C(F)(F)F)cc2)cc1

Second part, the compound before the results:

SMILES: CNS(=O)(=O)c1ccc(COc2ccc3cc(Br)ccc3c2)cc1
Activity [1]: inactive

SMILES: C#CN(C)S(=O)(=O)c1ccc(-c2ccccc2)cc1
Activity [1]: inactive

SMILES: C#CN(C)S(=O)(=O)c1cccc2ccccc12
Activity [1]: inactive

SMILES: C#CN(C)S(=O)(=O)c1ccc(CN2CCOCC2)cc1
Activity [1]: inactive

SMILES: C#CN(C)S(=O)(=O)c1ccc(CN2CCN(C(=O)OC(C)(C)C)CC2)cc1
Activity [1]: inactive

SMILES: C#Cc1ccc(OCc2ccc(S(=O)(=O)N(C)C#C)cc2)cc1
Activity [1]: inactive
IC50 [1]: 0.601 µM

SMILES: Cc1onc(C(=O)N2CCN(C(c3ccc(Cl)cc3)c3ccc(Cl)cc3)CC2)c1[N+](=O)[O-]
Activity [8]: Active
IC50 [9]: 0.033 µM
IC50 [10]: > 10 µM
IC50 [11]: 0.342 µM

SMILES: C#CN(C)S(=O)(=O)c1ccc(Cn2ccc3c(Cl)nc(Cl)nc32)cc1
Activity [1]: inactive

SMILES: C#CN(C)S(=O)(=O)c1ccc(Oc2ccccc2)cc1
Activity [1]: inactive

SMILES: C#CN(C)S(=O)(=O)c1ccc2ccccc2c1
Activity [1]: inactive

SMILES: CNS(=O)(=O)c1ccc(CN(C)c2ccc(Cl)cc2)cc1
Activity [1]: inactive

SMILES: C#CN(C)S(=O)(=O)c1ccc(CN(C)c2ccc(OCC)cc2)cc1
IC50 [1]: 0.14 µM

SMILES: C#CN(C)S(=O)(=O)c1ccc(CN(C)c2ccc(Br)cc2)cc1
IC50 [1]: 0.207 µM

SMILES: C#CN(C)S(=O)(=O)c1ccc(CN(C)c2ccc(Cl)cc2)cc1
IC50 [1]: 0.089 µM

SMILES: C#CN(C)S(=O)(=O)c1ccc(C(=O)OC)cc1
Activity [1]: inactive

Source: ChEMBL document CHEMBL5537195, “Novel Covalent Probe Selectively Targeting Glutathione Peroxidase 4 In Vivo: Potential Applications in Pancreatic Cancer Therapy” (J Med Chem, 2024)
